Reference: patent publication EP0090603A2, “Antibacterial compounds” (BEECHAM GROUP PLC, priority 1982, dated 1983)
Values after ≈ are worked out from the molar mass of the structure shown.

Legend:
Strep. agalactiae SPA1 = experiment: MIC against Veterinary Bacteria, in vitro agar dilution; settings: Streptococcus agalactiae, SPA1, 18 h, read-out: MIC's against Strep. agalactiae SPA1
Method: (§1) The activity of the compounds of the Examples against various veterinarily important bacteria, was assayed in vitro using two-fold serial dilutions in Diagnostic Sensitivity Test Agar inoculated with 10^4 organisms.

Strep. uberis SPU1 = experiment: as above; settings: Streptococcus uberis, SPU1, 18 h, read-out: MIC's against Strep. uberis SPU1
Method: as §1

M. suipneumoniae HK(2) = experiment: MIC against Mycoplasma, in vitro agar dilution; format: cell-based; settings: Mesomycoplasma hyopneumoniae, 144 h; Friis broth solidified with 0.9% agarose, 10^3 to 10^5 C.F.U., 6 days at 37°C; read-out: MIC's against M. suipneumoniae HK(2)
[1] = tested on: Erysipelothrix rhusiopathiae NCTC 8163; experiment: MIC against Veterinary Bacteria, in vitro agar dilution; settings: Erysipelothrix rhusiopathiae, NCTC8163, 18 h, read-out: MIC's against Erysipelothrix rhusiopathiae NCTC 8163
Method: as §1

M. suipneumoniae NB12 = experiment: MIC against Mycoplasma, in vitro agar dilution; format: cell-based; settings: Mesomycoplasma hyopneumoniae, NB12, 144 h; Friis broth solidified with 0.9% agarose, 10^3 to 10^5 C.F.U., 6 days at 37°C; read-out: MIC's against M. suipneumoniae NB12
M. suipneumoniae JF 435 = experiment: MIC against Mycoplasma, in vitro agar dilution; format: cell-based; settings: Mesomycoplasma hyopneumoniae, JF435, 144 h; Friis broth solidified with 0.9% agarose, 10^3 to 10^5 C.F.U., 6 days at 37°C; read-out: MIC's against M. suipneumoniae JF 435
Bord. bronchiseptica B08 = experiment: MIC against Veterinary Bacteria, in vitro agar dilution; settings: Bordetella bronchiseptica, B08, 18 h, read-out: MIC's against Bord. bronchiseptica B08
Method: as §1

M. dispar NCTC 10125 = experiment: MIC against Mycoplasma, in vitro agar dilution; format: cell-based; settings: 144 h; Friis broth solidified with 0.9% agarose, 10^3 to 10^5 C.F.U., 6 days at 37°C; read-out: MIC's against M. dispar NCTC 10125
[2] = tested on: M. suipneumoniae NCTC 10110; experiment: MIC against Mycoplasma, in vitro agar dilution; format: cell-based; settings: Mesomycoplasma hyopneumoniae, NCTC10110, 144 h; Friis broth solidified with 0.9% agarose, 10^3 to 10^5 C.F.U., 6 days at 37°C; read-out: MIC's against M. suipneumoniae NCTC 10110
Bord. bronchiseptica B09 = experiment: MIC against Veterinary Bacteria, in vitro agar dilution; settings: Bordetella bronchiseptica, B09, 18 h, read-out: MIC's against Bord. bronchiseptica B09
Method: as §1

[3] = tested on: Strep. suis (group D) SPS11; experiment: as above; settings: Streptococcus suis, 18 h, read-out: MIC's against Strep. suis (group D) SPS11
Method: as §1

S. dublin S7 = experiment: as above; settings: Salmonella enterica, S7, 18 h, read-out: MIC's against S. dublin S7
Method: as §1

[4] = tested on: M. suipneumoniae J2206/183^b; experiment: MIC against Mycoplasma, in vitro agar dilution; format: cell-based; settings: Mesomycoplasma hyopneumoniae, 144 h; Friis broth solidified with 0.9% agarose, 10^3 to 10^5 C.F.U., 6 days at 37°C; read-out: MIC's against M. suipneumoniae J2206/183^b
M. suipneumoniae LABER = experiment: MIC against Mycoplasma, in vitro agar dilution; format: cell-based; settings: Mesomycoplasma hyopneumoniae, 144 h; Friis broth solidified with 0.9% agarose, 10^3 to 10^5 C.F.U., 6 days at 37°C; read-out: MIC's against M. suipneumoniae LABER
M. hyorhinis ATCC 23234 = experiment: MIC against Mycoplasma, in vitro agar dilution; format: cell-based; settings: Mesomycoplasma hyorhinis, ATCC23234, 144 h; Friis broth solidified with 0.9% agarose, 10^3 to 10^5 C.F.U., 6 days at 37°C; read-out: MIC's against M. hyorhinis ATCC 23234
[5] = tested on: M. suipneumoniae PW/C/210; experiment: MIC against Mycoplasma, in vitro agar dilution; format: cell-based; settings: Mesomycoplasma hyopneumoniae, 144 h; Friis broth solidified with 0.9% agarose, 10^3 to 10^5 C.F.U., 6 days at 37°C; read-out: MIC's against M. suipneumoniae PW/C/210
M. bovis NCTC 10131 = experiment: microbe, parasite or virus in culture; format: cell-based; settings: NCTC10131, 144 h, read-out: MIC's against M. bovis NCTC 10131
M. suipneumoniae Str. 11 = experiment: MIC against Mycoplasma, in vitro agar dilution; format: cell-based; settings: Mesomycoplasma hyopneumoniae, STR.11, 144 h; Friis broth solidified with 0.9% agarose, 10^3 to 10^5 C.F.U., 6 days at 37°C; read-out: MIC's against M. suipneumoniae Str. 11
M. gallisepticum S6 = experiment: MIC against Mycoplasma, in vitro agar dilution; format: cell-based; settings: Mycoplasmoides gallisepticum, S6, 144 h; Friis broth solidified with 0.9% agarose, 10^3 to 10^5 C.F.U., 6 days at 37°C; read-out: MIC's against M. gallisepticum S6
Past. multocida PA1 = experiment: MIC against Veterinary Bacteria, in vitro agar dilution; settings: Pasteurella multocida, PA1, 18 h, read-out: MIC's against Past. multocida PA1
Method: as §1

S. typhimurium S18 = experiment: as above; settings: Salmonella enterica, TYPHIMURIUM, 18 h, read-out: MIC's against S. typhimurium S18
Method: as §1

[6] = tested on: M. suipneumoniae ATCC 25095; experiment: MIC against Mycoplasma, in vitro agar dilution; format: cell-based; settings: Mesomycoplasma hyopneumoniae, ATCC25095, 144 h; Friis broth solidified with 0.9% agarose, 10^3 to 10^5 C.F.U., 6 days at 37°C; read-out: MIC's against M. suipneumoniae ATCC 25095
[7] = tested on: M. bovigenitalium ATCC 14173; experiment: MIC against Mycoplasma, in vitro agar dilution; format: cell-based; settings: 144 h; Friis broth solidified with 0.9% agarose, 10^3 to 10^5 C.F.U., 6 days at 37°C; read-out: MIC's against M. bovigenitalium ATCC 14173

In the case of `COC(=O)C(C)=C(C)CC1OCC(CC2OC2C(C)C(C)O)C(O)C1O` [Example 2, Methyl 4-[5S-(2S,3S-epoxy-5S-hydroxy-4S-methylhexyl)-3R,4R-dihydroxytetrahydropyran-2S-yl]-2,3-dimethylbut-2(E)-enoate], the MIC (Strep. agalactiae SPA1) is reported as 80 µg/mL (≈ 215 µM), the MIC (Strep. uberis SPU1) is reported as 20 µg/mL (≈ 53.7 µM) and the MIC (M. suipneumoniae HK(2)) is reported as 10 µg/mL (≈ 26.8 µM). It also gave an MIC [1] greater than 80 µg/mL, an MIC (M. suipneumoniae NB12) of 5 µg/mL (≈ 13.4 µM) and an MIC (M. suipneumoniae JF 435) of 10 µg/mL (≈ 26.8 µM). The MIC (Bord. bronchiseptica B08) was greater than 80 µg/mL, the MIC (M. dispar NCTC 10125) was 1 µg/mL (≈ 2.68 µM) and the MIC [2] was 5 µg/mL (≈ 13.4 µM). It also gave an MIC (Bord. bronchiseptica B09) of 40 µg/mL (≈ 107 µM), an MIC [3] greater than 80 µg/mL and an MIC (S. dublin S7) greater than 80 µg/mL. The MIC [4] was 5 µg/mL (≈ 13.4 µM), the MIC (M. suipneumoniae LABER) was 5 µg/mL (≈ 13.4 µM) and the MIC (M. hyorhinis ATCC 23234) was 5 µg/mL (≈ 13.4 µM). For the same compound, the MIC [5] was 5 µg/mL (≈ 13.4 µM), the MIC (M. bovis NCTC 10131) was 0.25 µg/mL (≈ 0.671 µM) and the MIC (M. suipneumoniae Str. 11) was 5 µg/mL (≈ 13.4 µM). For the same compound, the MIC (M. gallisepticum S6) was greater than 10 µg/mL, the MIC (Past. multocida PA1) was 10 µg/mL (≈ 26.8 µM) and the MIC (S. typhimurium S18) was greater than 80 µg/mL. The MIC [6] was 5 µg/mL (≈ 13.4 µM) and the MIC [7] was 0.5 µg/mL (≈ 1.34 µM).
`CC(CC1OCC(CC2OC2C(C)C(C)O)C(O)C1O)=C(C)C(=O)O` [Example 4, Sodium 4-[5S-(2S, 35-epoxy-5S-hydroxy-4S-methylhexyl)-3R,4R-dihydroxytetrahydropyran-2S-yl]-2,3-dimethylbut-2(E)-enoate] was tested, and the MIC (Strep. agalactiae SPA1) was 1.25 µg/mL, the MIC (Strep. uberis SPU1) was 0.156 µg/mL and the MIC (M. suipneumoniae HK(2)) was 0.25 µg/mL. The MIC [1] was 80 µg/mL, the MIC (M. suipneumoniae NB12) was 0.25 µg/mL and the MIC (M. suipneumoniae JF 435) was 0.25 µg/mL. For the same compound, the MIC (Bord. bronchiseptica B08) was greater than 80 µg/mL, the MIC (M. dispar NCTC 10125) was 0.05 µg/mL and the MIC [2] was 0.25 µg/mL. For the same compound, the MIC (Bord. bronchiseptica B09) was 40 µg/mL, the MIC [3] was 20 µg/mL and the MIC (S. dublin S7) was greater than 80 µg/mL. The MIC [4] was 0.25 µg/mL, the MIC (M. suipneumoniae LABER) was 0.1 µg/mL and the MIC (M. hyorhinis ATCC 23234) was 0.1 µg/mL. For the same compound, the MIC [5] was 0.1 µg/mL, the MIC (M. bovis NCTC 10131) was 0.025 µg/mL and the MIC (M. suipneumoniae Str. 11) was 0.1 µg/mL. The MIC (M. gallisepticum S6) was 5 µg/mL, the MIC (Past. multocida PA1) was 5 µg/mL and the MIC (S. typhimurium S18) was greater than 80 µg/mL. The MIC [6] was 0.25 µg/mL and the MIC [7] was 0.05 µg/mL.
In the case of `CC(CC1OCC(CC2OC2C(C)C(C)O)C(O)C1O)=C(C)C(=O)OCc1cccc([N+](=O)[O-])c1` [Example 3, m-Nitrobenzyl 4-[5S-(2S,3S-epoxy-5S-hydroxy-4S-methylhexyl)-3R,4R-dihydroxytetrahydropyran-2S-yl]-2,3-di-methylbut-2(E)-enoate], the MIC (Strep. agalactiae SPA1) is reported as 1.25 µg/mL (≈ 2.53 µM), the MIC (Strep. uberis SPU1) is reported as 0.156 µg/mL (≈ 0.316 µM) and the MIC (M. suipneumoniae HK(2)) is reported as 0.1 µg/mL (≈ 0.203 µM). The MIC [1] was 40 µg/mL (≈ 81 µM), the MIC (M. suipneumoniae NB12) was 0.05 µg/mL (≈ 0.101 µM) and the MIC (M. suipneumoniae JF 435) was 0.1 µg/mL (≈ 0.203 µM). The MIC (Bord. bronchiseptica B08) was 80 µg/mL (≈ 162 µM), the MIC (M. dispar NCTC 10125) was less than 0.01 µg/mL and the MIC [2] was 0.05 µg/mL (≈ 0.101 µM). It also gave an MIC (Bord. bronchiseptica B09) of 80 µg/mL (≈ 162 µM), an MIC [3] of 10 µg/mL (≈ 20.3 µM) and an MIC (S. dublin S7) greater than 80 µg/mL. It also gave an MIC [4] of 0.1 µg/mL (≈ 0.203 µM), an MIC (M. suipneumoniae LABER) of 0.05 µg/mL (≈ 0.101 µM) and an MIC (M. hyorhinis ATCC 23234) of 0.025 µg/mL (≈ 0.0507 µM). It also gave an MIC [5] of 0.025 µg/mL (≈ 0.0507 µM), an MIC (M. bovis NCTC 10131) of 0.025 µg/mL (≈ 0.0507 µM) and an MIC (M. suipneumoniae Str. 11) of 0.05 µg/mL (≈ 0.101 µM). The MIC (M. gallisepticum S6) was 5 µg/mL (≈ 10.1 µM), the MIC (Past. multocida PA1) was 2.5 µg/mL (≈ 5.07 µM) and the MIC (S. typhimurium S18) was greater than 80 µg/mL. It also gave an MIC [6] of 0.025 µg/mL (≈ 0.0507 µM) and an MIC [7] of 0.025 µg/mL (≈ 0.0507 µM).
With `CCOC(=O)C(C)=C(C)CC1OCC(CC2OC2C(C)C(C)O)C(O)C1O` [Example 1, Ethyl 4-[5S-(2S,3S-epoxy-5S-hydroxy-4S-methylhexyl)-3R,4R-dihydroxytetrahydropyran-2S-yl]-2,3-dimethylbut-2(E)-enoate] the MIC (Strep. agalactiae SPA1) was 5 µg/mL (≈ 12.9 µM), the MIC (Strep. uberis SPU1) was 1.25 µg/mL (≈ 3.23 µM) and the MIC (M. suipneumoniae HK(2)) was 1 µg/mL (≈ 2.59 µM). It also gave an MIC [1] of 80 µg/mL (≈ 207 µM), an MIC (M. suipneumoniae NB12) of 1 µg/mL (≈ 2.59 µM) and an MIC (M. suipneumoniae JF 435) of 1 µg/mL (≈ 2.59 µM). For the same compound, the MIC (Bord. bronchiseptica B08) was greater than 80 µg/mL, the MIC (M. dispar NCTC 10125) was 0.25 µg/mL (≈ 0.647 µM) and the MIC [2] was 1 µg/mL (≈ 2.59 µM). For the same compound, the MIC (Bord. bronchiseptica B09) was 80 µg/mL (≈ 207 µM), the MIC [3] was greater than 80 µg/mL and the MIC (S. dublin S7) was greater than 80 µg/mL. The MIC [4] was 2.5 µg/mL (≈ 6.47 µM), the MIC (M. suipneumoniae LABER) was 1 µg/mL (≈ 2.59 µM) and the MIC (M. hyorhinis ATCC 23234) was 0.5 µg/mL (≈ 1.29 µM). It also gave an MIC [5] of 0.5 µg/mL (≈ 1.29 µM), an MIC (M. bovis NCTC 10131) of 0.05 µg/mL (≈ 0.129 µM) and an MIC (M. suipneumoniae Str. 11) of 1 µg/mL (≈ 2.59 µM). The MIC (M. gallisepticum S6) was greater than 10 µg/mL, the MIC (Past. multocida PA1) was 2.5 µg/mL (≈ 6.47 µM) and the MIC (S. typhimurium S18) was greater than 80 µg/mL. For the same compound, the MIC [6] was 1 µg/mL (≈ 2.59 µM) and the MIC [7] was 0.05 µg/mL (≈ 0.129 µM).
